# Assay results: patent publication US7473790B2 (Pfizer Inc., priority 2003, dated 2009)
# pIC50: −log10 of the molar value.
# Biological target: T1, HCV polymerase (Hepatitis C virus genotype 1b, UniProt P26663)
# T1 construct: 2.5 pmoles (0.15 μg) HCV polymerase protein in a final volume of 75 μL
# Test: HCV polymerase primer/template-directed transcription assay (32P-GTP incorporation, filter binding)
# Assay type: biochemical
# Details: recombinant HCV polymerase; 30 minutes at 30° C.; concentration giving 50% inhibition of polymerase-directed transcription; read-out: IC50
# Method in brief: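 Recombinant genotype 1b polymerase (30 nM) extended biotin-dG12 primer on poly(rC)300 template with 1 μM GTP plus α-32P-GTP, pH 7.2, 10 mM MgCl2, 30 min at 30° C, 1% DMSO final. Products captured on DE filters and counted. IC50 fitted from triplicate cpm, with a tight-binding correction applied below 200 nM.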
# T1 sequence (P26663 2420-3010): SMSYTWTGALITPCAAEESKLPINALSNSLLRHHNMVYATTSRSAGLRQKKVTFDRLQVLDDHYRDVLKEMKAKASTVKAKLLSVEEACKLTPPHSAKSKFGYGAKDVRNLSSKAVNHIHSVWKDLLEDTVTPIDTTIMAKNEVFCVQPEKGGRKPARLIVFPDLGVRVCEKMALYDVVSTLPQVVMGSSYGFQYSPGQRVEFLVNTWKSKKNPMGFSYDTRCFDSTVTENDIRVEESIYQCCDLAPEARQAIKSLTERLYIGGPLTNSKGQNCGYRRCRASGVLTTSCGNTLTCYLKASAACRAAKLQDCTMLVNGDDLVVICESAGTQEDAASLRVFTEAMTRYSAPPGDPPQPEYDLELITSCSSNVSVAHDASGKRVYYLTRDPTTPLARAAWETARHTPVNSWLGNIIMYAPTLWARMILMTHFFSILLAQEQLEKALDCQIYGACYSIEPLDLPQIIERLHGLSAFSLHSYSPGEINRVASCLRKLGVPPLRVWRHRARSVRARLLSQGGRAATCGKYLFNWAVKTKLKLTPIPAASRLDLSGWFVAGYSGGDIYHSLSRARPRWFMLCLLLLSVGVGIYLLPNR
row,SMILES,pIC50
1,"Cc1cc(C)n2nc(CC3=C(O)CC(CCc4ccc(OCC5CC5)c(F)c4)(C4CCCC4)OC3=O)nc2n1 (centres unmarked) [B(33), 6-Cyclopentyl-6-[2-(4-cyclopropylmethoxy-3-fluoro-phenyl)-ethyl]-3-(5,7-dimethyl-[1,2,4]triazolo[1,5-a]pyrimidin-2-ylmethyl)-4-hydroxy-5,6-dihydro-pyran-2-one]",6.87
2,Cc1cc(C)n2nc(CC3=C(O)CC(CCc4ccc(OC(C)C)cc4)(C4CCCC4)OC3=O)nc2n1 (centres unmarked) [B(34)],7.52
3,"COc1cc(OC)c(CCC2(C3CCCC3)CC(O)=C(Cc3c[nH]c(C)n3)C(=O)O2)cc1Cl (centres unmarked) [B(35), 6-[2-(5-Chloro-2,4-dimethoxy-phenyl)-ethyl]-6-cyclopentyl-4-hydroxy-3-(2-methyl-1H-imidazol-4-ylmethyl)-5,6-dihydro-pyran-2-one]",7.15
4,"Cc1cc(C)n2nc(CC3=C(O)CC(CCc4ccc5c(c4)OCCO5)(C4CCCC4)OC3=O)nc2n1 (centres unmarked) [B(36), 6-Cyclopentyl-6-[2-(2,3-dihydro-benzo[1,4]dioxin-6-yl)-ethyl]-3-(5,7-dimethyl-[1,2,4]triazolo[1,5-a]pyrimidin-2-ylmethyl)-4-hydroxy-5,6-dihydro-pyran-2-one]",7.38
5,"CCOc1c(Cl)cc(CCC2(C3CCCC3)CC(O)=C(Cc3nc4nc(C)cc(C)n4n3)C(=O)O2)cc1Cl (centres unmarked) [B(37), 6-Cyclopentyl-6-[2-(3,5-dichloro-4-ethoxy-phenyl)-ethyl]-3-(5,7-dimethyl-[1,2,4]triazolo[1,5-a]pyrimidin-2-ylmethyl)-4-hydroxy-5,6-dihydro-pyran-2-one]",8.10
6,"Cc1cc(C)n2nc(CC3=C(O)CC(CCc4ccc(Cl)c(Cl)c4)(C4CCCC4)OC3=O)nc2n1 (centres unmarked) [B(38), 6-Cyclopentyl-6-[2-(3,4-dichloro-phenyl)-ethyl]-3-(5,7-dimethyl-[1,2,4]triazolo[1,5-a]pyrimidin-2-ylmethyl)-4-hydroxy-5,6-dihydro-pyran-2-one]",7.68
7,"Cc1cc(C)n2nc(CC3=C(O)CC(CCCCC4CCCCC4)(C4CCCC4)OC3=O)nc2n1 (centres unmarked) [B(39), 6-(4-Cyclohexyl-butyl)-6-cyclopentyl-3-(5,7-dimethyl-[1,2,4]triazolo[1,5-a]pyrimidin-2-ylmethyl)-4-hydroxy-5,6-dihydro-pyran-2-one]",7.54
8,"Cc1cc(C)n2nc(CC3=C(O)CC(CCc4ccc5c(c4)OC(F)(F)C(F)(F)O5)(C4CCCC4)OC3=O)nc2n1 (centres unmarked) [B(40), 6-Cyclopentyl-3-(5,7-dimethyl-[1,2,4]triazolo[1,5-a]pyrimidin-2-ylmethyl)-4-hydroxy-6-[2-(2,2,3,3-tetrafluoro-2,3-dihydro-benzo[1,4]dioxin-6-yl)-ethyl]-5,6-dihydro-pyran-2-one]",7.85
9,"CCCOc1ccc(CCC2(C3CCCC3)CC(O)=C(Cc3nc4nc(C)cc(C)n4n3)C(=O)O2)cc1 (centres unmarked) [B(41), 6-Cyclopentyl-3-(5,7-dimethyl-[1,2,4]triazolo[1,5-a]pyrimidin-2-ylmethyl)-4-hydroxy-6-[2-(4-propoxy-phenyl)-ethyl]-5,6-dihydro-pyran-2-one]",6.92
10,"Cc1cc(C)n2nc(CC3=C(O)CC(CCc4ccc(OCc5c(C)noc5C)cc4)(C4CCCC4)OC3=O)nc2n1 (centres unmarked) [B(42), 6-Cyclopentyl-6-{2-[4-(3,5-dimethyl-isoxazol-4-ylmethoxy)-phenyl]-ethyl}-3-(5,7-dimethyl-[1,2,4]triazolo[1,5-a]pyrimidin-2-ylmethyl)-4-hydroxy-5,6-dihydro-pyran-2-one]",6.68
11,"COc1ccc(CCC2(C3CCCC3)CC(O)=C(Cc3nc4cc(Cl)ccc4n3C)C(=O)O2)cc1Cl (centres unmarked) [B(43), 6-[2-(3-chloro-4-methoxyphenyl)ethyl]-3-[(5-chloro-1-methyl-1H-benzimidazol-2-yl)methyl]-6-cyclopentyl-4-hydroxy-5,6-dihydro-2H-pyran-2-one]",6.44
12,"Cc1cc(C)n2nc(CC3=C(O)CC(CCc4ccc(C(C)C)c(Cl)c4)(C4CCCC4)OC3=O)nc2n1 (centres unmarked) [B(44), 6-[2-(3-chloro-4-isopropylphenyl)ethyl]-6-cyclopentyl-3-[(5,7-dimethyl[1,2,4]triazolo[1,5-a]pyrimidin-2-yl)methyl]-4-hydroxy-5,6-dihydro-2H-pyran-2-one]",7.28
13,"Cc1cc(C)n2nc(CC3=C(O)CC(CCc4ccc(C(C)C)c(F)c4)(C4CCCC4)OC3=O)nc2n1 (centres unmarked) [B(45), 6-cyclopentyl-3-[(5,7-dimethyl[1,2,4]triazolo[1,5-a]pyrimidin-2-yl)methyl]-6-[2-(3-fluoro-4-isopropylphenyl)ethyl]-4-hydroxy-5,6-dihydro-2H-pyran-2-one]",7.28
14,"CCc1cc(CCC2(C3CCCC3)CC(=O)C(Cc3nc4nc(C)cc(C)n4n3)C(=O)O2)ccc1F (centres unmarked) [B(46), 6-cyclopentyl-3-[(5,7-dimethyl[1,2,4]triazolo[1,5-a]pyrimidin-2-yl)methyl]-6-[2-(3-ethyl-4-fluorophenyl)ethyl]dihydro-2H-pyran-2,4(3H)-dione]",7.70
15,"COc1ccc(CCC2(C3CCCC3)CC(=O)C(Cc3nccs3)C(=O)O2)cc1Cl (centres unmarked) [B(47), 6-[2-(3-chloro-4-methoxyphenyl)ethyl]-6-cyclopentyl-3-(1,3-thiazol-2-ylmethyl)dihydro-2H-pyran-2,4(3H)-dione]",6.10
16,"COc1ccc(CCC2(C3CCCC3)CC(=O)C(Cc3nccn3C)C(=O)O2)cc1Cl (centres unmarked) [B(48), 6-[2-(3-chloro-4-methoxyphenyl)ethyl]-6-cyclopentyl-3-[(1-methyl-1H-imidazol-2-yl)methyl]dihydro-2H-pyran-2,4(3H)-dione]",6.15
17,"Cc1cc(C)n2nc(CC3C(=O)CC(CCc4cccc(C(C)C)c4)(C4CCCC4)OC3=O)nc2n1 (centres unmarked) [B(49), 6-cyclopentyl-3-[(5,7-dimethyl[1,2,4]triazolo[1,5-a]pyrimidin-2-yl)methyl]-6-[2-(3-isopropylphenyl)ethyl]dihydro-2H-pyran-2,4(3H)-dione]",8.00
18,"Cc1cc(C)n2nc(CC3C(=O)CC(CCc4ccc(C(C)C)cc4)(C4CCCC4)OC3=O)nc2n1 (centres unmarked) [B(50), 6-cyclopentyl-3-[(5,7-dimethyl[1,2,4]triazolo[1,5-a]pyrimidin-2-yl)methyl]-6-[2-(4-isopropylphenyl)ethyl]dihydro-2H-pyran-2,4(3H)-dione]",7.05
19,"Cc1cc(C)n2nc(CC3C(=O)CC(CCc4cccc(Cl)c4)(C4CCCC4)OC3=O)nc2n1 (centres unmarked) [B(51), 6-[2-(3-chlorophenyl)ethyl]-6-cyclopentyl-3-[(5,7-dimethyl[1,2,4]triazolo[1,5-a]pyrimidin-2-yl)methyl]dihydro-2H-pyran-2,4(3H)-dione]",7.14
20,"COc1cc(OC)c(CCC2(C3CCCC3)CC(O)=C(Cc3nc4nc(C)cc(C)n4n3)C(=O)O2)cc1Cl (centres unmarked) [B(52), 6-[2-(5-chloro-2,4-dimethoxyphenyl)ethyl]-6-cyclopentyl-3-[(5,7-dimethyl[1,2,4]triazolo[1,5-a]pyrimidin-2-yl)methyl]dihydro-2H-pyran-2,4(3H)-dione]",6.77
21,"COc1ccc(CCC2(C3CCCC3)CC(O)=C(Cc3nc(C)nn3C)C(=O)O2)cc1Cl (centres unmarked) [B(53), 6-[2-(Chloro-4-methoxyphenyl)ethyl]-6-cyclopentyl-3-[(1,3-dimethyl-1H-1,2,4-triazol-5-yl)methyl]-4-hydroxy-5,6-dihydro-2H-pyran-2-one]",6.46
22,"COc1ccc(CCC2(C3CCCC3)CC(O)=C(Cc3nc(C)cc(=O)[nH]3)C(=O)O2)cc1Cl (centres unmarked) [B(54), 2-({6-[-(3-chloro-4-methoxyphenyl)ethyl]-6-cyclopentyl-4-hydroxy-2-oxo-5,6-dihydro-2H-pyran-3-yl}methyl)-6-methylpyrimidin-4(3H)-one]",6.52
23,"COc1ccc(CCC2(C3CCCC3)CC(O)=C(Cc3nc4ccccc4c(=O)[nH]3)C(=O)O2)cc1Cl (centres unmarked) [B(55), 2-({6-[2-(3-Chloro-4-methoxyphenyl)ethyl]-6-cyclopentyl-4-hydroxy-2-oxo-5,6-dihydro-2H-pyran-3-yl}methyl)quinazolin-4(3H)-one]",6.82
24,"COc1ccc(CCC2(C3CCCC3)CC(O)=C(Cc3nc4ccsc4c(=O)[nH]3)C(=O)O2)cc1Cl (centres unmarked) [B(56), 2-({6-[2-(3-Chloro-4-methoxyphenyl)ethyl]-6-cyclopentyl-4-hydroxy-2-oxo-5,6-dihydro-2H-pyran-3-yl}methyl)thieno[3,2-d]pyrimidin-4(3H)-one]",7.00
25,"COc1ccc(CCC2(C3CCCC3)CC(O)=C(Cc3nc4cc(OC)c(OC)cc4c(=O)[nH]3)C(=O)O2)cc1Cl (centres unmarked) [B(57), 2-({6-[2-(3-chloro-4-methoxyphenyl)ethyl]-6-cyclopentyl-4-hydroxy-2-oxo-5,6-dihydro-2H-pyran-3-yl}methyl)-6,7-dimethoxyquinazolin-4(3H)-one]",7.30
26,"Cc1csc2nc(CC3=C(O)CC(CCc4ccc(OCC5CC5)c(Cl)c4)(C4CCCC4)OC3=O)cc(=O)n12 (centres unmarked) [B(58), 7-[(6-{2-[3-Chloro-4-(cyclopropylmethoxy)phenyl]ethyl}-6-cyclopentyl-4-hydroxy-2-oxo-5,6-dihydro-2H-pyran-3-yl)methyl]-3-methyl-5H-[1,3]thiazolo[3,2-a]pyrimidin-5-one]",5.21
27,"COc1cc(OC)c(CCC2(C3CCCC3)CC(O)=C(Cc3cc(=O)n4c(C)csc4n3)C(=O)O2)cc1Cl (centres unmarked) [B(59), 7-({6-[2-(5-Chloro-2,4-dimethoxyphenyl)ethyl]-6-cyclopentyl-4-hydroxy-2-oxo-5,6-dihydro-2H-pyran-3-yl}methyl)-3-methyl-5H-[1,3]thiazolo[3,2-a]pyrimidin-5-one]",8.22
28,"COC(=O)Nc1cc(CC2=C(O)CC(CCc3ccc(OC)cc3)(C3CCCC3)OC2=O)on1 (centres unmarked) [B(60), Methyl 5-({6-cyclopentyl-4-hydroxy-6-[2-(4-methoxyphenyl)ethyl]-2-oxo-5,6-dihydro-2H-pyran-3-yl}methyl)isoxazol-3-ylcarbamate]",6.27
29,"COc1ccc(CCC2(C3CCCC3)CC(O)=C(Cc3cc(=O)n4c(C)csc4n3)C(=O)O2)cc1 (centres unmarked) [B(61), 7-({6-Cyclopentyl-4-hydroxy-6-[2-(4-methoxyphenyl)ethyl]-2-oxo-5,6-dihydro-2H-pyran-3-yl}methyl)-3-methyl-5H-[1,3]thiazolo[3,2-a]pyrimidin-5-one]",6.92
